Reference: PubChem BioAssay AID2060626 (Molecular Pharmacology Branch, DTP, NCI, 2025)

Test system: 168753-222-R-J1-PDC complex spheroid viability
Test: Anticancer human tumor 168753-222-R-J1-PDC patient-derived bladder carcinoma cell line growth inhibition [CLK]
Details: for IC50: curve of first compound; for viability, T/C: stronger effect = lower value; active = viability on the fitted dose curve at most 10% of control; inactive = the rest
Summary of the method: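 Patient-derived tumor cells grown as complex spheroids with HUVEC endothelial cells and mesenchymal stem cells, treated with drug combinations. Concentrations descend in half-log steps from near clinical Cmax, or from 10 microM if Cmax unknown.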

[1] = second compound 0.0316 µM, first compound 0.00316 µM
[2] = second compound 0.0316 µM, first compound 0.01 µM
[3] = second compound 0.0316 µM, first compound 0.0316 µM
[4] = second compound 0.0316 µM, first compound 0.1 µM
[5] = second compound 0.1 µM, first compound 0.00316 µM
[6] = second compound 0.1 µM, first compound 0.01 µM
[7] = second compound 0.1 µM, first compound 0.0316 µM
[8] = second compound 0.1 µM, first compound 0.1 µM
[9] = second compound 0.316 µM, first compound 0.00316 µM
[10] = second compound 0.316 µM, first compound 0.01 µM
[11] = second compound 0.316 µM, first compound 0.0316 µM
[12] = second compound 0.316 µM, first compound 0.1 µM
[13] = second compound 1 µM, first compound 0.00316 µM
[14] = second compound 1 µM, first compound 0.01 µM
[15] = second compound 1 µM, first compound 0.0316 µM
[16] = second compound 1 µM, first compound 0.1 µM
[17] = second compound 3.16 µM, first compound 0.00316 µM
[18] = second compound 3.16 µM, first compound 0.01 µM
[19] = second compound 3.16 µM, first compound 0.0316 µM
[20] = second compound 3.16 µM, first compound 0.1 µM
[21] = second compound 10 µM, first compound 0.00316 µM
[22] = second compound 10 µM, first compound 0.01 µM
[23] = second compound 10 µM, first compound 0.0316 µM
[24] = second compound 10 µM, first compound 0.1 µM
[25] = second compound 0.0316 µM, first compound 0.316 µM
[26] = second compound 0.0316 µM, first compound 1 µM
[27] = second compound 0.0316 µM, first compound 3.16 µM
[28] = second compound 0.0316 µM, first compound 10 µM
[29] = second compound 0.1 µM, first compound 0.316 µM
[30] = second compound 0.1 µM, first compound 1 µM
[31] = second compound 0.1 µM, first compound 3.16 µM
[32] = second compound 0.1 µM, first compound 10 µM
[33] = second compound 0.316 µM, first compound 0.316 µM
[34] = second compound 0.316 µM, first compound 1 µM
[35] = second compound 0.316 µM, first compound 3.16 µM
[36] = second compound 0.316 µM, first compound 10 µM
[37] = second compound 1 µM, first compound 0.316 µM
[38] = second compound 1 µM, first compound 1 µM
[39] = second compound 1 µM, first compound 3.16 µM
[40] = second compound 1 µM, first compound 10 µM
[41] = second compound 3.16 µM, first compound 0.316 µM
[42] = second compound 3.16 µM, first compound 1 µM
[43] = second compound 3.16 µM, first compound 3.16 µM
[44] = second compound 3.16 µM, first compound 10 µM
[45] = second compound 10 µM, first compound 0.316 µM
[46] = second compound 10 µM, first compound 1 µM
[47] = second compound 10 µM, first compound 3.16 µM
[48] = second compound 10 µM, first compound 10 µM
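Also: viability measured after seven days of drug exposure.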
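For viability, T/C in this document: luminescence signal used as surrogate for viable cell amount; 100% = DMSO vehicle control wells.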

Cn1ncnc1[C@H]1c2n[nH]c(=O)c3cc(F)cc(c23)N[C@@H]1c1ccc(F)cc1 + CNC(=O)c1ccc(Nc2nc(OC3CCCC3)c3c(-c4ccc5nc(C)oc5c4)c[nH]c3n2)c(OC)c1
inactive: viability, T/C (second compound 0.0316 µM, first compound 0.000316 µM) 95% | viability, T/C (second compound 0.0316 µM, first compound 0.001 µM) 116% | viability, T/C [1] 110% | viability, T/C [2] 113% | viability, T/C [3] 104% | viability, T/C [4] 108% | viability, T/C (second compound 0.1 µM, first compound 0.000316 µM) 96.8% | viability, T/C (second compound 0.1 µM, first compound 0.001 µM) 93.6% | viability, T/C [5] 91.7% | viability, T/C [6] 103% | viability, T/C [7] 103% | viability, T/C [8] 92.6% | viability, T/C (second compound 0.316 µM, first compound 0.000316 µM) 66.3% | viability, T/C (second compound 0.316 µM, first compound 0.001 µM) 72% | viability, T/C [9] 77.2% | viability, T/C [10] 85.2% | viability, T/C [11] 82.1% | viability, T/C [12] 77.2% | viability, T/C (second compound 1 µM, first compound 0.000316 µM) 33.9% | viability, T/C (second compound 1 µM, first compound 0.001 µM) 32% | viability, T/C [13] 30.6% | viability, T/C [14] 28% | viability, T/C [15] 31.9% | viability, T/C [16] 42% | viability, T/C (second compound 3.16 µM, first compound 0.000316 µM) 22.6% | viability, T/C (second compound 3.16 µM, first compound 0.001 µM) 18.6% | viability, T/C [17] 19.6% | viability, T/C [18] 18.7% | viability, T/C [19] 19.8% | viability, T/C [20] 21.5% | viability, T/C (second compound 10 µM, first compound 0.000316 µM) 15.8% | viability, T/C (second compound 10 µM, first compound 0.001 µM) 17.3% | viability, T/C [21] 19.3% | viability, T/C [22] 16.8% | viability, T/C [23] 16.3% | viability, T/C [24] 20.5%
< 0.316 nM: IC50 (second compound 1 µM) | IC50 (second compound 3.16 µM) | IC50 (second compound 10 µM)
> 100 nM: IC50 (second compound 0.0316 µM) | IC50 (second compound 0.1 µM) | IC50 (second compound 0.316 µM)

COc1cccc2c1C(=O)c1c(O)c3c(c(O)c1C2=O)CC(O)(C(=O)CO)CC3OC1CC(N)C(O)C(C)O1 (stereo not given) + CNC(=O)c1ccc(Nc2nc(OC3CCCC3)c3c(-c4ccc5nc(C)oc5c4)c[nH]c3n2)c(OC)c1
inactive: viability, T/C [3] 83.8% | viability, T/C [4] 73.1% | viability, T/C [25] 50% | viability, T/C [26] 14.6% | viability, T/C [7] 94.5% | viability, T/C [8] 72.3% | viability, T/C [29] 49.8% | viability, T/C [30] 14.9% | viability, T/C [11] 71.9% | viability, T/C [12] 57.7% | viability, T/C [33] 33.1% | viability, T/C [34] 14.1% | viability, T/C [15] 30.2% | viability, T/C [16] 18.5% | viability, T/C [37] 15.2% | viability, T/C [38] 14.1% | viability, T/C [19] 18.4% | viability, T/C [20] 17.9% | viability, T/C [41] 13.3% | viability, T/C [23] 16% | viability, T/C [24] 16% | viability, T/C [45] 12.1%
141 nM: IC50 (second compound 0.316 µM)
active: viability, T/C [27] 13.7% | viability, T/C [28] 0.12% | viability, T/C [31] 15.6% | viability, T/C [32] 0.1% | viability, T/C [35] 8% | viability, T/C [36] 0.12% | viability, T/C [39] 6.77% | viability, T/C [40] 0.13% | viability, T/C [42] 12.1% | viability, T/C [43] 2.89% | viability, T/C [44] 0.14% | viability, T/C [46] 11.2% | viability, T/C [47] 0.71% | viability, T/C [48] 0.24%
266 nM: IC50 (second compound 0.1 µM)
< 31.6 nM: IC50 (second compound 1 µM) | IC50 (second compound 3.16 µM) | IC50 (second compound 10 µM)
291 nM: IC50 (second compound 0.0316 µM)

CCc1c2c(nc3ccc(O)cc13)-c1cc3c(c(=O)n1C2)COC(=O)[C@]3(O)CC + CN1CCN(c2cc(C(=O)Nc3cc4cc(-c5cnn(C)c5)ccc4cn3)ccn2)CC1
active: viability, T/C [29] 8.78% | viability, T/C [30] 6.92% | viability, T/C [10] 8.44% | viability, T/C [11] 7.99% | viability, T/C [12] 9.04% | viability, T/C [33] 2.19% | viability, T/C [34] 0.99% | viability, T/C [13] 0.14% | viability, T/C [14] 0.16% | viability, T/C [15] 0.1% | viability, T/C [16] 0.08% | viability, T/C [37] 0.24% | viability, T/C [38] 1.02% | viability, T/C [17] 0.15% | viability, T/C [18] 0.15% | viability, T/C [19] 0.25% | viability, T/C [20] 0.08% | viability, T/C [41] 0.11% | viability, T/C [42] 0.31% | viability, T/C [21] 0.66% | viability, T/C [22] 0.14% | viability, T/C [23] 0.19% | viability, T/C [24] 0.14% | viability, T/C [45] 0.18% | viability, T/C [46] 0.45%
16.9 nM: IC50 (second compound 0.0316 µM)
< 3.16 nM: IC50 (second compound 0.1 µM) | IC50 (second compound 0.316 µM) | IC50 (second compound 1 µM) | IC50 (second compound 3.16 µM) | IC50 (second compound 10 µM)
inactive: viability, T/C [1] 77.7% | viability, T/C [2] 65.3% | viability, T/C [3] 29.3% | viability, T/C [4] 30.1% | viability, T/C [25] 13.1% | viability, T/C [26] 8.39% | viability, T/C [5] 32.6% | viability, T/C [6] 36.1% | viability, T/C [7] 20.5% | viability, T/C [8] 12.4% | viability, T/C [9] 9.06%

CC(CO)NC(=O)c1cc(-c2ccc(Cl)cc2)nn(-c2cnn(C)c2)c1=O (stereo not given) + CN1CCN(c2cc(C(=O)Nc3cc4cc(-c5cnn(C)c5)ccc4cn3)ccn2)CC1
5220 nM: IC50 (second compound 0.1 µM)
inactive: viability, T/C [3] 98.7% | viability, T/C [4] 130% | viability, T/C [25] 64% | viability, T/C [26] 112% | viability, T/C [27] 117% | viability, T/C [28] 88.2% | viability, T/C [7] 87.2% | viability, T/C [8] 81.8% | viability, T/C [29] 64.1% | viability, T/C [30] 73.3% | viability, T/C [31] 58.6% | viability, T/C [32] 39.6% | viability, T/C [11] 19.4% | viability, T/C [12] 13.6% | viability, T/C [33] 16.8% | viability, T/C [34] 13.8% | viability, T/C [35] 19.1% | viability, T/C [36] 13.8%
active: viability, T/C [15] 0.44% | viability, T/C [16] 0.4% | viability, T/C [37] 0.31% | viability, T/C [38] 0.55% | viability, T/C [39] 0.46% | viability, T/C [40] 3.13% | viability, T/C [19] 0.2% | viability, T/C [20] 0.16% | viability, T/C [41] 2.4% | viability, T/C [42] 0.15% | viability, T/C [43] 2.55% | viability, T/C [44] 0.21% | viability, T/C [23] 0.26% | viability, T/C [24] 0.45% | viability, T/C [45] 0.61% | viability, T/C [46] 0.27% | viability, T/C [47] 1.02% | viability, T/C [48] 2.24%
> 10000 nM: IC50 (second compound 0.0316 µM)
< 31.6 nM: IC50 (second compound 0.316 µM) | IC50 (second compound 1 µM) | IC50 (second compound 3.16 µM) | IC50 (second compound 10 µM)

C=C(F)C(=O)N1CCN(c2nc(OCC3CCCN3C)nc3c2CCN(c2cccc4cccc(Cl)c24)C3)CC1CC#N (stereo not given) + CN1CCN(c2cc(C(=O)Nc3cc4cc(-c5cnn(C)c5)ccc4cn3)ccn2)CC1
3260 nM: IC50 (second compound 0.0316 µM)
inactive: viability, T/C [3] 89.1% | viability, T/C [4] 111% | viability, T/C [25] 85.8% | viability, T/C [26] 101% | viability, T/C [27] 51.4% | viability, T/C [7] 58.7% | viability, T/C [8] 46.7% | viability, T/C [29] 63.5% | viability, T/C [30] 56.3% | viability, T/C [31] 21.8% | viability, T/C [11] 15.6% | viability, T/C [12] 13% | viability, T/C [33] 11.8%
< 31.6 nM: IC50 (second compound 0.316 µM) | IC50 (second compound 1 µM) | IC50 (second compound 3.16 µM) | IC50 (second compound 10 µM)
1230 nM: IC50 (second compound 0.1 µM)
active: viability, T/C [28] 0.91% | viability, T/C [32] 0.32% | viability, T/C [34] 8.4% | viability, T/C [35] 4.48% | viability, T/C [36] 1.3% | viability, T/C [15] 0.47% | viability, T/C [16] 0.78% | viability, T/C [37] 0.38% | viability, T/C [38] 0.16% | viability, T/C [39] 0.12% | viability, T/C [40] 1.07% | viability, T/C [19] 0.26% | viability, T/C [20] 0.24% | viability, T/C [41] 0.44% | viability, T/C [42] 0.14% | viability, T/C [43] 0.87% | viability, T/C [44] 0.23% | viability, T/C [23] 0.27% | viability, T/C [24] 0.19% | viability, T/C [45] 0.28% | viability, T/C [46] 0.24% | viability, T/C [47] 0.36% | viability, T/C [48] 2.34%
